Assay [1] concerns Hippocampal Cell Line (HT22). As to the kind of experiment: Glutamate-induced oxidative toxicity in hippocampal cell line (HT22): mitochondrial membrane potential by JC-1 fluorescence ratio. The assay is classed as cell-based, mouse. Conditions: 10^-7 M compound; for protection against glutamate-mediated damage to the mitochondria (in words) / JC-1 ratio B (+glutamate 5 mM) / JC-1 ratio A (control conditions): HT-22 cells; for protection against glutamate-mediated damage to the mitochondria (in words): 5 mM glutamate; for JC-1 ratio B (+glutamate 5 mM) / JC-1 ratio A (control conditions): 24h, fluorescence ratio 530/590:480/530; for JC-1 ratio A (control conditions): control conditions (no glutamate); for JC-1 ratio B/A (%): ratio of +glutamate 5 mM to control conditions; for effect on mitochondrial membrane potential of the control cells (in words): HT-22 control cells without glutamate. The method, then:
Table 1: Effects of ML Compounds of the Invention on Glutamate-induced Oxidative Toxicity in Hippocampal Cell Line (HT22)
The changes in the mithochondrial membrane potential was assessed using the fluorescent probe 5,5′,6,6′-tetrachloro-1,1′,3,3′-tetraethylbenzimidazolcarbocyanine iodide (JC-1) according to Nuydens et al, 1999, L of Neuroscience; 92, 153-9. Immortalized mouse hipocampal cells (HT-22) were maintained in Dulbecco's modified minimal essential medium (DMEM) supplemented with 10% fetal bovine serum and passaged by trypsinization. Cells (3000 per 96 palte well) were cultured for 24h with DMEM containing 5 mM glutamate and were treated with 10^−7 M of the ML compounds. Cells were then loaded with JC-1 by changing the culture medium to Phosphate buffered saline (PBS) containing 1 g/L glucose and 10 uM JC-1 for 10 mln. at 37° and were washed once. Flouresence was then measured in a plate reader at excitation/emission wavelengths of 480/530 nm and 530/590 nm. The ratio of the fluoresence intensities in the two wavelengths 530/590:480/530 is an indication of the mitochondrial membrane potential. Decrease in this ratio indicates depolarization of the mitochondrial membrane due to damage induced by anoxic or other phathological situations leading to apoptosis of cells.

The test system of assay [2] is 125I-Melatonin Binding in Membranes of Hamster Brain. In words: 125I-Melatonin binding in membranes of hamster brain (competition). As to conditions: for inhibition of the specific 125I-melatonin binding: 10^-6M; for % bound at competitor concentration 10-6M / 125I-melatonin bound at competitor concentration 10-6M: competitor 10^-6M; for % bound at competitor concentration 10-6M / % bound at competitor concentration 10-7M: relative to competitor concentration 0; for 125I-melatonin bound at competitor concentration 10-6M / 125I-melatonin bound at competitor concentration 10-7M: 125I-melatonin 250 pM, 37° C., 60 min, radioactivity, unit not given; for % bound at competitor concentration 10-7M / 125I-melatonin bound at competitor concentration 10-7M: competitor 10^-7M. The method, then:
^125I-Melatonin Binding in Membranes of Hamster Brain
2 whole hamster brains were homogenized with Teflon-glass homogenizer in 10 vol/g tissue of ice cold Tris-HCl buffer (50 mmol/L Tris, 5 mmol/L CaCl2, pH=7.4) and spun at 10,000 g for 10 min. the supernatant were spun at 100,000 g for two hours to yield a crude synaptosomal pellet (P2).
Aliquots of suspended P2 (20 ul) were incubated at 37° C. with ^125I-melatonin (250 pM) for 60 mln. in Tris-Hcl buffer in the absence or presence of 1 nM-100 μM test-substances (ML compounds and melatonin). The binding reaction was terminated by the addition of 4 ml ice cold Tris buffer. Membranes were then collected by vacuum filtration using GF/C glass fiber filters and washed with 3×4 ml ice-cold buffer. The filters containing the bound ^125I-melatonin were assayed for the amount of radioactivity in a γ counter. […] ML-29, ML-30 and ML-31 (10^−6M) inhibited (≧20%) the specific ^125I-melatonin binding. ML-27, ML-28 and ML-23 reduced the specific ^125I-melatonin binding to a lesser extent (˜13%).

With `COc1ccc2[nH]cc(CCNC(C)=O)c2c1` [Melatonin, reference compound], in assay [1], the “protection against glutamate-mediated damage to the mitochondria (in words)” value (shortened to “protection”) is “significantly protected”, the “JC-1 ratio B (+glutamate 5 mM)” value is 2.44, the “JC-1 ratio A (control conditions)” value turned out to be 2.48 and the “JC-1 ratio B/A (%)” value turned out to be 98%. For the same compound, in assay [2], the “inhibition of the specific 125I-melatonin binding” value (“inhibition” below) is recorded as 20%, the “% bound at competitor concentration 10-6M” value is 79%, the “125I-melatonin bound at competitor concentration 10-6M” value was 335 and the “% bound at competitor concentration 10-7M” value turned out to be 89%. In addition, in assay [2], the “125I-melatonin bound at competitor concentration 10-7M” value came to 377.

Take `Nc1cc(NCCc2c[nH]c3ccccc23)c([N+](=O)[O-])cc1[N+](=O)[O-]` [ML-27, N-(2,4-dinitro-5-aminophenyl)tryptamine]: in assay [1], the “protection” value is listed as “significantly protected”, the “JC-1 ratio B (+glutamate 5 mM)” value is given as 1.83, the “JC-1 ratio A (control conditions)” value is 1.80 and the “effect on mitochondrial membrane potential of the control cells (in words)” value (“effect” below) is recorded as “decreased”. For the same compound, the “JC-1 ratio B/A (%)” value in assay [1] is 102%. Further, in assay [2], the “inhibition” value is on record as about 13%, the “% bound at competitor concentration 10-6M” value is recorded as 87%, the “125I-melatonin bound at competitor concentration 10-6M” value was found to be 426 and the “% bound at competitor concentration 10-7M” value was 92%. In assay [2], the “125I-melatonin bound at competitor concentration 10-7M” value came out at 448.

Take `Cc1ccc2[nH]cc(CCNc3cc(N)c([N+](=O)[O-])cc3[N+](=O)[O-])c2c1` [ML-31, N-(2,4-dinitro-5-aminophenyl)-5′-methyltryptamine]: in assay [1], the “protection” value is “without providing protection”, the “JC-1 ratio B (+glutamate 5 mM)” value is listed as 1.57, the “JC-1 ratio A (control conditions)” value worked out at 1.93 and the “effect” value is reported as “decreased”. The “JC-1 ratio B/A (%)” value in assay [1] was 81%. Also, in assay [2], the “% bound at competitor concentration 10-6M” value was 72%, the “125I-melatonin bound at competitor concentration 10-6M” value is 334, the “% bound at competitor concentration 10-7M” value is 94% and the “125I-melatonin bound at competitor concentration 10-7M” value came to 438.

Take `COc1ccc2[nH]cc(CCNc3ccc([N+](=O)[O-])cc3[N+](=O)[O-])c2c1` [ML-23, N-(2,4-dinitrophenyl)-5-methoxytryptamine, reference compound]: in assay [1], the “protection” value is reported as “significantly protected”, the “JC-1 ratio B (+glutamate 5 mM)” value stood at 1.97, the “JC-1 ratio A (control conditions)” value is listed as 2.19 and the “effect” value is “did not decrease”. In addition, in assay [1], the “JC-1 ratio B/A (%)” value was determined as 90%. In assay [2], the “inhibition” value was about 13%, the “% bound at competitor concentration 10-6M” value was determined as 87%, the “125I-melatonin bound at competitor concentration 10-6M” value stood at 403 and the “% bound at competitor concentration 10-7M” value was 94%. For the same compound, the “125I-melatonin bound at competitor concentration 10-7M” value in assay [2] is listed as 435.

Turning to `O=[N+]([O-])c1ccc(NCCc2c[nH]c3ccccc23)c([N+](=O)[O-])c1` [ML-25, N-(2,4-dinitrophenyl)tryptamine], in assay [1], the “protection” value is reported as “significantly protected”, the “JC-1 ratio B (+glutamate 5 mM)” value is 2.01, the “JC-1 ratio A (control conditions)” value was determined as 2.21 and the “effect” value is recorded as “did not decrease”. Besides, the “JC-1 ratio B/A (%)” value in assay [1] came out at 91%. Further, in assay [2], the “% bound at competitor concentration 10-6M” value worked out at 91%, the “125I-melatonin bound at competitor concentration 10-6M” value amounted to 390, the “% bound at competitor concentration 10-7M” value is 92% and the “125I-melatonin bound at competitor concentration 10-7M” value worked out at 396.

Consider `COc1ccc2[nH]cc(CCNc3cc(NC(C)=O)c([N+](=O)[O-])cc3[N+](=O)[O-])c2c1` [ML-30, 2,4-dinitro-5-(5′-methoxytryptyl)aminoacetanilide], for which, in assay [1], the “protection” value is on record as “significantly protected”, the “JC-1 ratio B (+glutamate 5 mM)” value stood at 2.13, the “JC-1 ratio A (control conditions)” value was 1.83 and the “effect” value is given as “decreased”. Further, the “JC-1 ratio B/A (%)” value in assay [1] is 116%. Also, in assay [2], the “% bound at competitor concentration 10-6M” value is given as 80%, the “125I-melatonin bound at competitor concentration 10-6M” value was 409, the “% bound at competitor concentration 10-7M” value stood at 96% and the “125I-melatonin bound at competitor concentration 10-7M” value came out at 488.

Consider `CC(=O)Nc1cc(NCCc2c[nH]c3ccc(C)cc23)c([N+](=O)[O-])cc1[N+](=O)[O-]` [ML-29, 2,4-dinitro-5-(5′-methyltryptyl)aminoacetanilide], for which, in assay [1], the “protection” value is on record as “without providing protection”, the “JC-1 ratio B (+glutamate 5 mM)” value turned out to be 1.79, the “JC-1 ratio A (control conditions)” value worked out at 2.28 and the “effect” value is given as “decreased”. Besides, the “JC-1 ratio B/A (%)” value in assay [1] was determined as 78%. Further, in assay [2], the “% bound at competitor concentration 10-6M” value was 80%, the “125I-melatonin bound at competitor concentration 10-6M” value is 358, the “% bound at competitor concentration 10-7M” value is on record as 90% and the “125I-melatonin bound at competitor concentration 10-7M” value amounted to 404.

Regarding `Cc1ccc2[nH]cc(CCNc3ccc([N+](=O)[O-])cc3[N+](=O)[O-])c2c1` [ML-28, N-(2,4-dinitrophenyl)-5-methyltryptamine], in assay [1], the “protection” value was “did not protect”, the “JC-1 ratio B (+glutamate 5 mM)” value is on record as 2.28, the “JC-1 ratio A (control conditions)” value is given as 2.77 and the “effect” value is “elevated”. Further, the “JC-1 ratio B/A (%)” value in assay [1] is on record as 82%. In assay [2], the “inhibition” value was about 13%, the “% bound at competitor concentration 10-6M” value is recorded as 87%, the “125I-melatonin bound at competitor concentration 10-6M” value came out at 365 and the “% bound at competitor concentration 10-7M” value came to 91%. In assay [2], the “125I-melatonin bound at competitor concentration 10-7M” value came to 381.

As to `CC(=O)Nc1cc(NCCc2c[nH]c3ccccc23)c([N+](=O)[O-])cc1[N+](=O)[O-]` [ML-26, 2,4-dinitro-5-tryptylaminoacetanilide], in assay [1], the “protection” value is listed as “significantly protected”, the “JC-1 ratio B (+glutamate 5 mM)” value came out at 2.11, the “JC-1 ratio A (control conditions)” value was determined as 2.16 and the “effect” value was “did not decrease”. Moreover, in assay [1], the “JC-1 ratio B/A (%)” value amounted to 98%. Also, in assay [2], the “% bound at competitor concentration 10-6M” value is reported as 99%, the “125I-melatonin bound at competitor concentration 10-6M” value is given as 411, the “% bound at competitor concentration 10-7M” value stood at 104% and the “125I-melatonin bound at competitor concentration 10-7M” value is given as 435.

Consider `COc1ccc2[nH]cc(CCNc3cc(N)c([N+](=O)[O-])cc3[N+](=O)[O-])c2c1` [ML-32, N-(2,4-dinitro-5-aminophenyl)-5′-methoxytryptamine], for which, in assay [1], the “protection” value is reported as “without providing protection”, the “JC-1 ratio B (+glutamate 5 mM)” value amounted to 1.76, the “JC-1 ratio A (control conditions)” value came to 2.15 and the “effect” value is “decreased”. Also, the “JC-1 ratio B/A (%)” value in assay [1] came to 82%. In assay [2], the “% bound at competitor concentration 10-6M” value worked out at 93%, the “125I-melatonin bound at competitor concentration 10-6M” value was found to be 419, the “% bound at competitor concentration 10-7M” value was 90% and the “125I-melatonin bound at competitor concentration 10-7M” value is 408.

(Values after US6780884B2, “Derivating of tryptamine and analogous compounds and pharmaceutical formulations containing them” (Neurim Pharmaceuticals (1991) Ltd., priority 2000, dated 2004).)
